Experimental data reported in patent publication US20260274814A1, “THIENYL COMPOUNDS FOR THE TREATMENT OF A CENTRAL NERVOUS SYSTEM DISEASE OR DISORDER” (Coreterra Therapeutics, Inc., priority 2023, published 2026).
Where a name gives a salt, the structure may show the parent alone. Read-outs that look alike come from different tables or passages of the source.

Test system: mice
Test: Neuropharmacological Assay (SmartCube): automated behavioral signature of compound-treated mice compared with a database of reference drug classes
Type: in vivo
Settings: for minimal effective dose: Mus musculus, ip, read-out: MED; for minimal effective dose / MED: minimal effective dose: dose having 45% or more total activity in SmartCube; for minimal effective dose / MED (minimal effective dose) / MED: i.p., that dose is shown; for MED (minimal effective dose): dose having 45% or more total activity in SmartCube
Method in brief: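 Compounds in N-methyl-2-pyrrolidone/polyethylene glycol/propylene glycol were given i.p. 15 min before testing, at 3 doses; values shown are for 3.0 mg/kg. Video-captured behaviour was matched by algorithm against reference drug classes, giving a probability per class. MED: lowest dose reaching ≥45% total activity.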

[1] = SmartCube class probability, 3.0 mg/kg i.p., 15 min before test
[2] = if only one dose was tested, hydrochloride
[3] = probability that activity matches this class of agents, 3.0 mg/kg i.p., 15 min before test
[4] = probability that activity matches this class of agents, 3.0 mg/kg i.p., 15 min before test, hydrochloride, 3 mg/kg
[5] = SmartCube probability class, 3.0 mg/kg dose, i.p. 15 min before the behavioral test
[6] = probability that activity matches this class of agents, 3.0 mg/kg i.p., 15 min before test, 3 mg/kg
[7] = SmartCube class probability, 3.0 mg/kg i.p., 15 min before test, hydrochloride, 3 mg/kg
[8] = SmartCube probability class, 3.0 mg/kg dose, i.p. 15 min before the behavioral test, hydrochloride, 3 mg/kg
[9] = SmartCube class probability, 3.0 mg/kg i.p., 15 min before test, 3 mg/kg

Row | SMILES | minimal effective dose (if only one dose tested) [mg/kg] | AD [1] | AG [1] | AN [1] | AP [1] | AX [1] | CE [1] | HL [1] | MS [1] | PS [1] | SH [1] | UK [1] | AG [3] | AN [3] | MS [3] | SH [3] | other results
1 | CNC1CCc2sc(F)c(C)c2C1 (stereo not drawn) [Compound 142, 2-fluoro-N, 3-dimethyl-4,5,6,7-tetrahydrobenzothiophen-5-amine hydrochloride] | 1 | + (≥4%) | ND (^ <4%) | ++ (≥24%) | + (≥4%) | ND (^ <4%) | ND (^ <4%) | ND (^ <4%) | ND (^ <4%) | + (≥4%) | ND (^ <4%) | + (≥4%) |  |  |  |  | 
2 | CNC1COc2cscc2C1 (single isomer, unassigned) [Compound 52, N-methyl-3,4-dihydro-2H-thieno[3,4-b]pyran-3-amine hydrochloride] |  |  |  |  |  |  |  |  |  |  |  |  | ND (^ <4%) | ND (^ <4%) | ND (^ <4%) | ND (^ <4%) | MED (minimal effective dose) [2]: 3.0 mpk; AD [3]: ND (^ <4%); CE [3]: ND (^ <4%); HL [3]: ND (^ <4%); PS [3]: ND (^ <4%); UK [3]: + (≥4%); AP [4]: +++ (≥49%); AX [4]: ++ (≥24%)
3 | CNC1COc2scc(C(F)(F)F)c2C1 (single isomer, unassigned) [Compound 289, N-methyl-5-(trifluoromethyl)-3,4-dihydro-2H-thieno[2,3-b]pyran-3-amine hydrochloride] |  |  |  |  |  |  |  |  |  |  |  |  |  |  |  |  | minimal effective dose (if only one dose was tested): > 3 mg/kg; AD [5]: ND (^ <4%); AG [5]: ND (^ <4%); AN [5]: ND (^ <4%); AP [5]: ND (^ <4%); AX [5]: ND (^ <4%); CE [5]: ND (^ <4%); HL [5]: ND (^ <4%); MS [5]: ND (^ <4%); PS [5]: ND (^ <4%); SH [5]: ND (^ <4%); UK [5]: + (≥4%)
4 | CNC1CCc2sc(C)c(F)c2C1 (stereo not drawn) [Compound 196, 3-fluoro-N, 2-dimethyl-4,5,6,7-tetrahydrobenzothiophen-5-amine hydrochloride] | 3 | ND (^ <4%) | ND (^ <4%) | ND (^ <4%) | ND (^ <4%) | ND (^ <4%) | ND (^ <4%) | ND (^ <4%) | ND (^ <4%) | ND (^ <4%) | ND (^ <4%) | + (≥4%) |  |  |  |  | 
5 | CNC1(C)CCc2scc(F)c2C1 (stereo not drawn) [Compound 182, 3-fluoro-N, 5-dimethyl-6,7-dihydro-4H-benzothiophen-5-amine hydrochloride] | 3 | ND (^ <4%) | ND (^ <4%) | ND (^ <4%) | ND (^ <4%) | ND (^ <4%) | ND (^ <4%) | ND (^ <4%) | ND (^ <4%) | + (≥4%) | + (≥4%) | ++ (≥24%) |  |  |  |  | 
6 | CNC1CCc2scc(C)c2C1.Cl (single isomer, unassigned) [Compound 69, N, 3-dimethyl-4,5,6,7-tetrahydrobenzothiophen-5-amine hydrochloride] |  |  |  |  |  |  |  |  |  |  |  |  | ND (^ <4%) | ND (^ <4%) | ND (^ <4%) | ND (^ <4%) | MED (minimal effective dose) [2]: 3 mpk; AD [3]: ND (^ <4%); CE [3]: ND (^ <4%); HL [3]: ND (^ <4%); PS [3]: ND (^ <4%); AP [4]: ND (^ <4%); AX [4]: ND (^ <4%); UK [4]: +++ (≥49%)
7 | CNC1CCc2scc(C(F)(F)F)c2C1 (stereo not drawn) [Compound 140, N-methyl-3-(trifluoromethyl)-4,5,6,7-tetrahydrobenzothiophen-5-amine hydrochloride] | 3 | ND (^ <4%) | ND (^ <4%) | ND (^ <4%) | + (≥4%) | ND (^ <4%) | ND (^ <4%) | ND (^ <4%) | ND (^ <4%) | ND (^ <4%) | ND (^ <4%) | +++ (≥49%) |  |  |  |  | 
8 | CNC1CCc2c(C(F)(F)F)sc(C)c2C1 (single isomer, unassigned; enantiomer 1) [Compound 106, N, 3-dimethyl-1-(trifluoromethyl)-4,5,6,7-tetrahydro-2-benzothiophen-5-amine hydrochloride enantiomer 1] |  |  |  |  |  |  |  |  |  |  |  |  | ND (^ <4%) | ND (^ <4%) | ND (^ <4%) | ND (^ <4%) | MED (minimal effective dose) (if only one dose was tested): 3 mpk; AP [3]: ND (^ <4%); AX [3]: ND (^ <4%); CE [3]: ND (^ <4%); HL [3]: ND (^ <4%); PS [3]: ND (^ <4%); AD [6]: + (≥4%); UK [6]: ++ (≥24%)
9 | CNC1CCc2c(C(F)(F)F)csc2C1 (single isomer, unassigned) [Compound 230, N-methyl-3-(trifluoromethyl)-4,5,6,7-tetrahydrobenzothiophen-6-amine hydrochloride] | 3 |  | ND (^ <4%) | ND (^ <4%) | ND (^ <4%) | ND (^ <4%) | ND (^ <4%) | ND (^ <4%) | ND (^ <4%) | ND (^ <4%) | ND (^ <4%) |  |  |  |  |  | AD [7]: + (≥4%); UK [7]: ND (^ <4%)
10 | CNC1Cc2scc(C)c2C1 (single isomer, unassigned) [Compound 317, N, 3-dimethyl-5,6-dihydro-4H-cyclopenta[b]thiophen-5-amine hydrochloride] |  |  |  |  |  |  |  |  |  |  |  |  |  |  |  |  | AD [5]: ND (^ <4%); AG [5]: ND (^ <4%); AN [5]: ND (^ <4%); HL [5]: ND (^ <4%); MS [5]: ND (^ <4%); PS [5]: ND (^ <4%); SH [5]: ND (^ <4%); UK [5]: ND (^ <4%); AP [8]: + (≥4%); AX [8]: +++ (≥49%); CE [8]: + (≥4%); MED (if only one dose was tested): 3 mpk
11 | CNC1CCc2ccsc2C1.Cl (single isomer, unassigned) [Compound 10, N-methyl-4,5,6,7-tetrahydrobenzothiophen-6-amine hydrochloride] |  |  |  |  |  |  |  |  |  |  |  |  | ND (^ <4%) | ND (^ <4%) | ND (^ <4%) | ND (^ <4%) | MED (minimal effective dose) [2]: 0.3 mpk; AD [3]: ++ (≥24%); AP [3]: ++ (≥24%); UK [3]: ND (^ <4%); AX [4]: ND (^ <4%); CE [4]: ND (^ <4%); HL [4]: ND (^ <4%); PS [4]: ND (^ <4%)
12 | CNC1Cc2cc(C)sc2C1 (single isomer, unassigned) [Compound 318, N, 2-dimethyl-5,6-dihydro-4H-cyclopenta[b]thiophen-5-amine hydrochloride] |  |  |  |  |  |  |  |  |  |  |  |  |  |  |  |  | minimal effective dose (if only one dose was tested): 3 mg/kg; AD [5]: ND (^ <4%); AG [5]: ND (^ <4%); AN [5]: ND (^ <4%); HL [5]: ND (^ <4%); MS [5]: ND (^ <4%); PS [5]: ND (^ <4%); SH [5]: ND (^ <4%); AP [8]: + (≥4%); AX [8]: + (≥4%); CE [8]: ND (^ <4%); UK [8]: +++ (≥49%)
13 | CNC1COc2cc(C)sc2C1 (stereo not drawn) [Compound 181, N, 2-dimethyl-6,7-dihydro-5H-thieno[3,2-b]pyran-6-amine hydrochloride] | > 3 | ND (^ <4%) | ND (^ <4%) | + (≥4%) | + (≥4%) | ND (^ <4%) | ND (^ <4%) | ND (^ <4%) | ND (^ <4%) | ND (^ <4%) | ND (^ <4%) | ND (^ <4%) |  |  |  |  | 
14 | CC1(N2CCCC2)CCc2ccsc2C1 (single isomer, unassigned) [Compound 276, 1-(6-methyl-4,5,6,7-tetrahydrobenzo[b]thiophen-6-yl)pyrrolidine] |  | ND (^ <4%) | ND (^ <4%) | ND (^ <4%) | ND (^ <4%) |  | ND (^ <4%) | ND (^ <4%) | ND (^ <4%) |  | ND (^ <4%) | ND (^ <4%) |  |  |  |  | AX [9]: ++++ (≥74%); PS [9]: ND (^ <4%); MED (if only one dose tested): 3 mpk
15 | CNC1(C)CCc2cscc2C1 (single isomer, unassigned; enantiomer 1) [Compound 101, N, 5-dimethyl-6,7-dihydro-4H-2-benzothiophen-5-amine hydrochloride enantiomer 1] |  |  |  |  |  |  |  |  |  |  |  |  | ND (^ <4%) | ND (^ <4%) | ND (^ <4%) | ND (^ <4%) | MED (minimal effective dose) (if only one dose was tested): 3 mpk; AD [3]: ++++ (≥74%); AP [3]: ND (^ <4%); AX [3]: ND (^ <4%); CE [3]: ND (^ <4%); HL [3]: ND (^ <4%); UK [3]: ND (^ <4%); PS [6]: ND (^ <4%)
